Like-named read-outs stand apart in the source and are kept apart here.
Experiments:
BC3 (PEL) = test: cells; assay type: cell-based
Protocol: (§1) Cell viability assays were performed by plating log-phase cells in RPMI complete media with 20% FBS at 1*10^5 cells/mL, with concentrations of 6-ETI or phospho-6-ETI ranging from 0.1 nM to 100 μM. ATP content at 24, 48 and 72 hours post-treatment was measured by the CellTiter-Glo kit (Promega, Madison, Wis.), or by Trypan blue assay as indicated. The LC50 for 6-ETI in each cell line was determined using online EC50 software at changbioscience.com or using GraphPad Prism to determine the LC50 for 6-ETI, phospho-6-ETI and nucleoside analogs in MM cell lines and primary MM patient samples.

IBL-1 (EBV+ DLBCL) = test: cells; assay type: cell-based
Protocol: as §1

U266 (MM) = test: cells; assay type: cell-based
Protocol: as §1

[1] = system: BC3 cells treated with 6-ETI; test: 6-ETI viability curves after ADK inhibitor pre-treatment; assay type: cell-based, human; conditions: pre-treatment with 1 μM ADK inhibitor
Protocol: as §1

ADK = ADK (Homo sapiens, UniProt P55263); conditions: known values; read-out: IC50 of ADK inhibition in intact cells; cited from earlier work
PEL cell line = PEL cell line viability assay of C8-modified analogs; assay type: cell-based
Protocol: as §1

[2] = system: BC3NFRen-luc #3 PEL xenograft; test: PEL xenograft model (BC3NFRen-luc #3 in NOD-SCID mice); assay type: in vivo; conditions: 200 mg/kg for 9 days
Protocol: The BC3 in vivo xenograft model was set up as previously described (6). Essentially, ˜4-6 week old male NOD-SCID mice (Jackson Labs Stock# 001303) were injected intraperitoneally (I.P.) with 1*10^7 BC3NFRen-luc #3 cells and followed by in vivo imaging every three days. After imaging on day 5 to confirm establishment of the tumor, the mice were randomized to vehicle, low dose and high dose cohorts, with average tumor burden distributed evenly across the groups. Each dose cohort contained 10 mice. Mice were treated for nine days beginning at randomization with vehicle (PBS-Tween80), low dose 6-ETI (150 mg/kg/day), or high dose 6-ETI (300 mg/kg/day). Mice were treated with 200 mg/kg of the 6-ETI analogs (phospho-6ETI and 6-ETI cAMP) for 9 days. We monitored mice for tumor growth by live imaging and weighing, with sacrifice point determined to be a net gain or loss of 10% body weight over a week. Upon reappearance of refractory tumors, mice were re-treated for a further 9-day interval, and followed for a total of 100 days. Compound effects were assessed on overall survival, progression-free survival and tumor burden by Kaplan-Meier curves generated using GraphPad Prism software, and determined p values by 2-tailed analysis with log-rank tests.

[3] = system: colon (RKO, HCT116, DID1) and pancreatic (PA-TU-8988T) cancer cell lines; test: Viability of adenocarcinoma cell lines; assay type: cell-based
Protocol: as §1

[4] = system: sensitive cell lines (expressing ADK at high levels); test: Viability in 6-ETI-sensitive cell lines; assay type: cell-based; conditions: p6-ETI: sensitive ADK-high lines; c6-ETI: PEL, MM, colon and pancreatic adenocarcinoma lines
Protocol: as §1

[5] = system: MM cell lines JJN3, MM1S, U266 and CAG; test: CellTiter-Glo viability assay, MM cell lines; assay type: cell-based; conditions: 48 hrs
Protocol: as §1

[6] = system: ADK-low resistant cell lines; test: Viability in ADK-low resistant cell lines; assay type: cell-based; conditions: some lines, not all
Protocol: as §1

[7] = Homo sapiens, 48 h, read-out: LC50 BC3 (PEL) in nM
[8] = Homo sapiens, 48 h, read-out: LC50 IBL-1 (DLBCL)
[9] = Homo sapiens, U-266, 48 h, read-out: LC50 U266 (MM) in nM
[10] = Homo sapiens, 48 h, read-out: LC50 BC3 (PEL)
[11] = Homo sapiens, U-266, 48 h, read-out: LC50 U266 (MM)

ADK, sequence (P55263 whole entry): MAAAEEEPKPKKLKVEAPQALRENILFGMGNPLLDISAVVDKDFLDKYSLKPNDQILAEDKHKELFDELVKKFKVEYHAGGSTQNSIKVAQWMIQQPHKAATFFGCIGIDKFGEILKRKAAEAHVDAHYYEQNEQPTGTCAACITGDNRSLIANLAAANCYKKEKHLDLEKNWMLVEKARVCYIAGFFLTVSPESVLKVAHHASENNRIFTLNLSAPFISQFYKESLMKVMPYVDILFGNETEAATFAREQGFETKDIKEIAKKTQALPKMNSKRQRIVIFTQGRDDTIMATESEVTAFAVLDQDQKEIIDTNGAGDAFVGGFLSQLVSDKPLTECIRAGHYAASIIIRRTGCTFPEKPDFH

With `Sc1ncnc2nc[nH]c12` [6-Mercaptopurine] as the compound, how does the CC50 (BC3 (PEL); [7]) read?
The CC50 was 5140 nM.

What about the CC50 (IBL-1 (EBV+ DLBCL); [8]) of the same compound?
The CC50 was > 100000 nM.

What about the CC50 (U266 (MM); [9]) of the same compound?
The CC50 was 10300 nM.

For `Nc1ncnc2nc(-c3ccc(N4CCOCC4)nc3)cc(-c3cccc(Br)c3)c12` [ABT-702], which “rescue from 6-ETI-induced cell death” value [1] is on record?
Its value is “effectively rescued PEL cells from cell death”.

What about the IC50 (ADK) of the same compound?
Its IC50 is 0.051 µM.

Which IC50 (PEL cell line) does the source give for `CCSc1ncnc2c1nc(Br)n2[C@@H]1O[C@H](CO)[C@@H](O)[C@H]1O` [Br group at C8 position, 8-bromo, 6-thioehtyl purine riboside] here?
Its IC50 is 8.13 µM.

Which IC50 (PEL cell line) does the source give for `CCSc1ncnc2c1nc(Cl)n2[C@@H]1O[C@H](CO)[C@@H](O)[C@H]1O` [C1 group at C8 position, 8-chloro, 6-thioethyl purine riboside] here?
Its IC50 is 1.41 µM.

What does the source list for `Nc1nc(Cl)nc2c1ncn2[C@H]1C[C@H](O)[C@@H](CO)O1` [Cladribine]?
CC50 (BC3 (PEL); [7]): 5240 nM; CC50 (IBL-1 (EBV+ DLBCL); Homo sapiens, 48 h, read-out: LC50 IBL-1 (DLBCL) in nM): 290 nM; CC50 (U266 (MM); [9]): 29200 nM

Which “rescue from 6-ETI-induced cell death” value [1] does the source give for `Nc1ncnc2c1c(I)cn2[C@@H]1C[C@H](N)[C@@H](O)[C@H]1O` [Compound A-134974] here?
The value was “effectively rescued PEL cells from cell death”.

And the IC50 (ADK)?
The IC50 was 0.05 µM.

For `O=c1[nH]cnc2c1ncn2[C@H]1CC[C@@H](CO)O1` [Didanosine], which CC50 (BC3 (PEL); [10]) is on record?
Its CC50 is > 100000 nM.

What about the CC50 (IBL-1 (EBV+ DLBCL); [8]) of the same compound?
Its CC50 is > 100000 nM.

What about the CC50 (U266 (MM); [11]) of the same compound?
Its CC50 is > 100000 nM.

What does the source list for `Nc1nc(F)nc2c1ncn2[C@@H]1O[C@H](CO)[C@@H](O)[C@@H]1O` [Fludarabine]?
CC50 (BC3 (PEL); 48 hours, CellTiter-Glo, read-out: LC50 BC3 (PEL)): > 100000 nM; CC50 (IBL-1 (EBV+ DLBCL); 48 hours, CellTiter-Glo, read-out: LC50 IBL-1 (DLBCL)): 28900 nM; CC50 (U266 (MM); 48 hours, CellTiter-Glo, read-out: LC50 U266 (MM)): 90700 nM

For `CCSc1ncnc2c1nc(N=[N+]=[N-])n2C1OC(CO)C(O)C1O` (stereo not shown) [N3 group at C8 position], which IC50 (PEL cell line) is on record?
The IC50 was 1.13 µM.

For `Nc1ncnc2c1ncn2[C@@H]1O[C@H](CO)[C@@H](O)[C@@H]1O` [Vidarabine], which CC50 (BC3 (PEL); [10]) is on record?
Its CC50 is > 100000 nM.

And the CC50 (IBL-1 (EBV+ DLBCL); [8])?
The CC50 was > 100000 nM.

And the CC50 (U266 (MM); [11])?
Its CC50 is > 100000 nM.

For `CCSc1ncnc2c1ncn2[C@@H]1O[C@@H]2COP(=O)(O)OC2C1O` (stereo partly shown) [c6-ETI], which “tumor growth in vivo” value [2] is on record?
Its value is “effectively inhibited tumor growth in vivo”.

What about the LC50 [3] of the same compound?
Its LC50 is “nanomolar range”.

What about the “effectiveness compared with 6-ETI” value [4] of the same compound?
Its value is “equally as effective”.

Which results are given for `CCSc1ncnc2c1ncn2[C@@H]1O[C@H](COP(=O)(O)O)[C@@H](O)[C@H]1O` [p6-ETI]?
effect on resistance of IBL-1 cells (IBL-1 (EBV+ DLBCL); IBL-1 express low levels of ADK, 48 hrs): partially overcomes resistance; tumor growth in vivo [2]: effectively inhibited tumor growth in vivo; LC50 [5]: high nM range; LC50 [3]: nanomolar range; effectiveness compared with 6-ETI [4]: equally effective as 6-ETI; sensitivity of ADK-low resistant cell lines [6]: only partial sensitivity

From US20190225643A1, “NOVEL NUCLEOSIDE ANALOGS AND USE THEREOF IN THERAPEUTIC TREATMENT” (CORNELL UNIVERSITY, priority 2016, published 2019)
